From patent US9493448B2, “Cycloalkane derivatives” (Daiichi Sankyo Company, Limited, priority 2012, dated 2016)

Assays:
[1] = molecular target: hNav 1.7 (Homo sapiens (Human), UniProt Q15858); test: Electrophysiological evaluation, automated patch clamp IonWorks Quattro (Population Patch Clamp mode); format: cell-based; settings: HEK293A cells stably expressing hNav 1.7/β1/β2; response to second depolarization pulse, pre-pulse potential set to V1/2; read-out: hNav1.7 IC50
[2] = system: mice and rats affected by thermal hyperalgesia; test: Thermal hyperalgesia assay; format: in vivo; settings: oral administration, constant dose, against the vehicle treatment group; latency to escape behaviors after thermal stimulation of hind paw;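 note: measurement times set by the study director and not disclosed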

Chain of hNav 1.7 (Q15858 whole entry): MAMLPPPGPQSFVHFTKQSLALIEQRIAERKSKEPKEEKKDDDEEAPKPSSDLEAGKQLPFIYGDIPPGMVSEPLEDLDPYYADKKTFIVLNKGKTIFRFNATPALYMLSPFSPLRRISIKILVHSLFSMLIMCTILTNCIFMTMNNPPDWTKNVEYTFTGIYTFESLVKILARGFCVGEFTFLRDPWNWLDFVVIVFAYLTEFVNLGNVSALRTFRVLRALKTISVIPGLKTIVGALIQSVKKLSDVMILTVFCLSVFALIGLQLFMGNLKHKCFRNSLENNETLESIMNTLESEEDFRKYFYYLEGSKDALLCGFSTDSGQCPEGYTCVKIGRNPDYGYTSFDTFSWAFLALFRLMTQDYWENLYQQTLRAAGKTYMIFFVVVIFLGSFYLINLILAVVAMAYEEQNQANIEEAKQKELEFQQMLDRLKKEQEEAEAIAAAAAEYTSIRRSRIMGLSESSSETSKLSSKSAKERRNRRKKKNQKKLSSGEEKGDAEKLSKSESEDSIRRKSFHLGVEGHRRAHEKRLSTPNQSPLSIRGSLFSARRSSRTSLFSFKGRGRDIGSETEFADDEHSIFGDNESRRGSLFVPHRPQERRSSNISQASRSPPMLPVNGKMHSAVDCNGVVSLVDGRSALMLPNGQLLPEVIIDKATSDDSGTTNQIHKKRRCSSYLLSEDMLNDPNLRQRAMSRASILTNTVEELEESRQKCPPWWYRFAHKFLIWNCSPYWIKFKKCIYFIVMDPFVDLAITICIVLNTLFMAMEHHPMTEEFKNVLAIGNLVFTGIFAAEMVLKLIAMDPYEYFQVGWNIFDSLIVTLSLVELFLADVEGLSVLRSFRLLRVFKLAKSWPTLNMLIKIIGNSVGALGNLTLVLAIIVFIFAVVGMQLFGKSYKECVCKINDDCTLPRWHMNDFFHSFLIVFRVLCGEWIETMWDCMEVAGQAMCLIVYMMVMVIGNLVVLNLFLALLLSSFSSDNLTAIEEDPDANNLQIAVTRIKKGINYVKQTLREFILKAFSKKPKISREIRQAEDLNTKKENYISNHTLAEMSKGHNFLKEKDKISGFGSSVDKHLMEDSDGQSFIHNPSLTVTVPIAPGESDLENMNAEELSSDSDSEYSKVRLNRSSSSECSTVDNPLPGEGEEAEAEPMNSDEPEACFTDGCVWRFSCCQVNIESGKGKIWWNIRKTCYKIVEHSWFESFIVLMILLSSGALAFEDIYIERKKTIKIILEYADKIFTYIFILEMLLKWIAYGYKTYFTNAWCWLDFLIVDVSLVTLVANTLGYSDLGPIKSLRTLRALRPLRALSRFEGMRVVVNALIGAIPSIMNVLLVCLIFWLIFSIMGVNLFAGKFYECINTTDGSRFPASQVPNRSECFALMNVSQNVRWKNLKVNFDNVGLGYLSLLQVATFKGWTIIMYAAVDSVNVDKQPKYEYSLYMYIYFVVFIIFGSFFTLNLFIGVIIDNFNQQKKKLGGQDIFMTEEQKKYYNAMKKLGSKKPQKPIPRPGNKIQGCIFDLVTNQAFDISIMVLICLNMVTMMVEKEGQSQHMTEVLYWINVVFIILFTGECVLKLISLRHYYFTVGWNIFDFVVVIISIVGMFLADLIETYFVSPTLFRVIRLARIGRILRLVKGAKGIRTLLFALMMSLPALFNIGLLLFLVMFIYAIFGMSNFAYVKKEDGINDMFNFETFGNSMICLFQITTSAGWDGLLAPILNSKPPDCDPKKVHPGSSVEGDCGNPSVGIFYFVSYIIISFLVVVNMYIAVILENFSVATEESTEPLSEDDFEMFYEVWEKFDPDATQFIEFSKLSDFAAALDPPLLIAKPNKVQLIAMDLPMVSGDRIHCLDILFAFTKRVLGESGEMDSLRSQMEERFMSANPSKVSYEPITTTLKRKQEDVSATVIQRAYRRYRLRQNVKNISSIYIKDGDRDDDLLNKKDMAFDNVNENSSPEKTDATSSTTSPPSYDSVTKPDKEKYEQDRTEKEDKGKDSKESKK
Chain of hNav 1.7 (Q07699 19-218 partner): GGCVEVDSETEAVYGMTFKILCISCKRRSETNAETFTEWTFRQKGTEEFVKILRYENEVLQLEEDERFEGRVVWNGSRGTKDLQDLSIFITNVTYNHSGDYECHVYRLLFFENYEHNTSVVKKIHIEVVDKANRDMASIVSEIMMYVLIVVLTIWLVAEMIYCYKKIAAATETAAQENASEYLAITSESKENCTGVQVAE
Chain of hNav 1.7 (O60939 30-215 partner): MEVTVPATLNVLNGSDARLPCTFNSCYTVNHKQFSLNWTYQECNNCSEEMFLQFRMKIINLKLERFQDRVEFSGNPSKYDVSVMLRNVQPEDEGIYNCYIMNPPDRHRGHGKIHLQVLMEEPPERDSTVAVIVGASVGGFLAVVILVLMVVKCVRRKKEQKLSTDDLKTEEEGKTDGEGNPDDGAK

| SMILES | IC50 [1] [nM] | Ratio of improving pain score (%) [2] |
| --- | --- | --- |
| Cc1cc(S(=O)(=O)Nc2ccncn2)c(F)cc1O[C@H]1CC(F)(F)CC[C@@H]1c1cn[nH]c1 (relative stereo) [Example 127, 4-{[(1S*,2R*)-5,5-Difluoro-2-(1H-pyrazol-4-yl)cyclohexyl]oxy}-2-fluoro-5-methyl-N-(pyrimidin-4-yl)benzenesulfonamide] | 120 | A (“A” when the rate was 61 to 100%) |
| Cn1nccc1[C@H]1CC(F)(F)CC[C@@H]1Oc1cc(F)c(S(=O)(=O)Nc2ccncn2)c(F)c1 (relative stereo) [Example 129, 4-{[(1S*,2R*)-4,4-Difluoro-2-(1-methyl-1H-pyrazol-5-yl)cyclohexyl]oxy}-2,6-difluoro-N-(pyrimidin-4-yl)benzenesulfonamide] | 100 | C (“C” when the rate was 0 to 30%) |
| Cn1nccc1[C@H]1CC(F)(F)CC[C@@H]1Oc1cc(F)c(S(=O)(=O)Nc2ccncn2)cc1Cl (relative stereo) [Example 131, 5-Chloro-4-{[(1S*,2R*)-4,4-difluoro-2-(1-methyl-1H-pyrazol-5-yl)cyclohexyl]oxy}-2-fluoro-N-(pyrimidin-4-yl)benzenesulfonamide] | 59 | C (“C” when the rate was 0 to 30%) |
| Cn1nccc1[C@H]1CC(F)(F)C[C@@H]1Oc1ccc(S(=O)(=O)Nc2ccncn2)c(F)c1F (relative stereo) [Example 132, 4-{[(1S*,2R*)-4,4-Difluoro-2-(1-methyl-1H-pyrazol-5-yl)cyclopentyl]oxy}-2,3-difluoro-N-(pyrimidin-4-yl)benzenesulfonamide] | 200 | A (“A” when the rate was 61 to 100%) |
| Cc1cc(S(=O)(=O)Nc2ccncn2)c(F)cc1O[C@H]1CC(F)(F)C[C@@H]1c1ccnn1C (relative stereo) [Example 133, 4-{[(1S*,2R*)-4,4-Difluoro-2-(1-methyl-1H-pyrazol-5-yl)cyclopentyl]oxy}-2-fluoro-5-methyl-N-(pyrimidin-4-yl)benzenesulfonamide] | 57 | A (“A” when the rate was 61 to 100%) |
| Cn1nccc1[C@H]1CCC(F)(F)C[C@@H]1Oc1cc(F)c(S(=O)(=O)Nc2nncs2)cc1Cl (relative stereo) [Example 134, 5-Chloro-4-{[(1S*,2R*)-5,5-difluoro-2-(1-methyl-1H-pyrazol-5-yl)cyclohexyl]oxy}-2-fluoro-N-(1,3,4-thiadiazol-2-yl)benzenesulfonamide] | 34 | B (“B” when the rate was 31 to 60%) |
| Cn1nccc1[C@H]1CC(F)(F)C[C@@H]1Oc1cc(F)c(S(=O)(=O)Nc2ccncn2)c(F)c1 (relative stereo) [Example 135, 4-{[(1S*,2R*)-4,4-Difluoro-2-(1-methyl-1H-pyrazol-5-yl)cyclopentyl]oxy}-2,6-difluoro-N-(pyrimidin-4-yl)benzenesulfonamide] | 51 | B (“B” when the rate was 31 to 60%) |
| Cn1nccc1[C@H]1CC(F)(F)C[C@@H]1Oc1ccc(S(=O)(=O)Nc2ccncn2)c(F)c1 (relative stereo) [Example 136, 4-{[(1S*,2R*)-4,4-Difluoro-2-(1-methyl-1H-pyrazol-5-yl)cyclopentyl]oxy}-2-fluoro-N-(pyrimidin-4-yl)benzenesulfonamide] | 290 | B (“B” when the rate was 31 to 60%) |
| Cc1cc(S(=O)(=O)Nc2ccncn2)c(F)cc1O[C@H]1CCC[C@@H]1c1ccn[nH]1 (relative stereo) [Example 138, 2-Fluoro-5-methyl-4-{[(1S*,2R*)-2-(1H-pyrazol-5-yl)cyclopentyl]oxy}-N-(pyrimidin-4-yl)benzenesulfonamide] | 24 | B (“B” when the rate was 31 to 60%) |
| O=S(=O)(Nc1ccncn1)c1c(F)cc(O[C@H]2CCC[C@@H]2c2ccn[nH]2)cc1F (relative stereo) [Example 139, 2,6-Difluoro-4-{[(1S*,2R*)-2-(1H-pyrazol-5-yl)cyclopentyl]oxy}-N-(pyrimidin-4-yl)benzenesulfonamide] | 35 | C (“C” when the rate was 0 to 30%) |
| O=S(=O)(Nc1ccncn1)c1cc(Cl)c(O[C@H]2CCC[C@@H]2c2ccn[nH]2)cc1F (relative stereo) [Example 140, 5-Chloro-2-fluoro-4-{[(1S*,2R*)-2-(1H-pyrazol-5-yl)cyclopentyl]oxy}-N-(pyrimidin-4-yl)benzenesulfonamide] | 34 | B (“B” when the rate was 31 to 60%) |
| Cn1nccc1[C@H]1CCC(F)(F)C[C@@H]1Oc1cc(F)c(S(=O)(=O)Nc2ccncn2)cc1Cl (relative stereo) [Example 141, 5-Chloro-4-{[(1S*,2R*)-5,5-difluoro-2-(1-methyl-1H-pyrazol-5-yl)cyclohexyl]oxy}-2-fluoro-N-(pyrimidin-4-yl)benzenesulfonamide] | 58 | A (“A” when the rate was 61 to 100%) |
| Cn1nccc1[C@H]1CC(F)(F)C[C@@H]1Oc1cc(F)c(S(=O)(=O)Nc2ccncn2)cc1Cl (relative stereo) [Example 146, 5-Chloro-4-{[(1S*,2R*)-4,4-difluoro-2-(1-methyl-1H-pyrazol-5-yl)cyclopentyl]oxy}-2-fluoro-N-(pyrimidin-4-yl)benzenesulfonamide] | 24 | C (“C” when the rate was 0 to 30%) |
| O=S(=O)(Nc1ccncn1)c1ccc(O[C@H]2CC(F)(F)CC[C@@H]2c2cn[nH]c2)cc1F (relative stereo) [Example 147, 4-{[(1S*,2R*)-5,5-Difluoro-2-(1H-pyrazol-4-yl)cyclohexyl]oxy}-2-fluoro-N-(pyrimidin-4-yl)benzenesulfonamide] | 600 | C (“C” when the rate was 0 to 30%) |
| O=S(=O)(Nc1ccncn1)c1cc(Cl)c(O[C@H]2CC(F)(F)CC[C@@H]2c2cn[nH]c2)cc1F (relative stereo) [Example 152, 5-Chloro-4-{[(1S*,2R*)-5,5-difluoro-2-(1H-pyrazol-4-yl)cyclohexyl]oxy}-2-fluoro-N-(pyrimidin-4-yl)benzenesulfonamide] | 17 | B (“B” when the rate was 31 to 60%) |
| CCn1nccc1[C@@H]1CCC[C@H]1Oc1ccc(S(=O)(=O)Nc2ccncn2)c(F)c1F [Example 118, 4-{[(1R,2S)-2-(1-Ethyl-1H-pyrazol-5-yl)cyclopentyl]oxy}-2,3-difluoro-N-(pyrimidin-4-yl)benzenesulfonamide] | 21000 | A (“A” when the rate was 61 to 100%) |
| CCn1nccc1[C@H]1CCC[C@@H]1Oc1ccc(S(=O)(=O)Nc2ccncn2)c(F)c1F [Example 119, 4-{[(1S,2R)-2-(1-Ethyl-1H-pyrazol-5-yl)cyclopentyl]oxy}-2,3-difluoro-N-(pyrimidin-4-yl)benzenesulfonamide] | 100 | A (“A” when the rate was 61 to 100%) |
| Cn1nccc1[C@@H]1CCC[C@H]1Oc1ccc(S(=O)(=O)Nc2ccncn2)c(F)c1 [Example 128, 2-Fluoro-4-{[(1R,2S)-2-(1-methyl-1H-pyrazol-5-yl)cyclopentyl]oxy}-N-(pyrimidin-4-yl)benzenesulfonamide] | 92000 | B (“B” when the rate was 31 to 60%) |
